Results: patent publication US5500410A, “Substituted alkylamide derivatives of teicoplanin” (Gruppo Lepetit S.p.A., priority 1989, dated 1996)

Experiments:
Strep. pyogenes C 203 = experiment: In vivo test in mice septicemically infected with Strep. pyogenes C 203; conditions: Strep. pyogenes C 203 septicemia
From the text: The ED50 values (mg/kg) of representative compounds of the invention in in vivo tests in mice septicemically infected with Strep. pyogenes. C 203, obtained according to the procedure described by V. Arioli et al. (Journal of Antibiotics 29, 511; 1976) are given in table III.

[1] = tested on: Escherichia coli SKF 12140; experiment: In vitro MIC, two-fold dilution in microtiter; format: cell-based; conditions: 18-24 h at 37° C., inoculum about 10^4 CFU/ml
Description: (§1) Broth cultures are diluted enough so that the final inecuium is about 10^4 colony forming units/ml (CFU/ml).

[2] = tested on: Proteus vulgaris X19H ATCC 881; experiment: In vitro MIC, two-fold dilution in microtiter; format: cell-based; conditions: 18-24 h at 37° C., inoculum about 10^4 CFU/ml
Description: as §1

[3] = tested on: Pseudomonas aeruginosa ATCC 10145; experiment: In vitro MIC, two-fold dilution in microtiter; format: cell-based; conditions: 18-24 h at 37° C., inoculum about 10^4 CFU/ml
Description: as §1

[4] = tested on: Staphylococcus aureus TOUR; experiment: In vitro MIC, two-fold dilution in microtiter; format: cell-based; conditions: 18-24 h at 37° C., inoculum about 10^4 CFU/ml
Description: as §1

[5] = tested on: Staphylococcus epidermidis ATCC 12228; experiment: In vitro MIC, two-fold dilution in microtiter; format: cell-based; conditions: 18-24 h at 37° C., inoculum about 10^4 CFU/ml
Description: as §1

[6] = tested on: Staphylococcus haemolyticus L 602; experiment: In vitro MIC, two-fold dilution in microtiter; format: cell-based; conditions: 18-24 h at 37° C., inoculum about 10^4 CFU/ml
Description: as §1

[7] = tested on: Streptococcus faecalis ATCC 7080; experiment: In vitro MIC, two-fold dilution in microtiter; format: cell-based; conditions: 18-24 h at 37° C., inoculum about 10^4 CFU/ml
Description: as §1

[8] = tested on: Streptococcus pneumoniae UC 41; experiment: In vitro MIC, two-fold dilution in microtiter; format: cell-based; conditions: 18-24 h at 37° C., inoculum about 10^4 CFU/ml
Description: as §1

[9] = tested on: Streptococcus pyogenes C 203; experiment: In vitro MIC, two-fold dilution in microtiter; format: cell-based; conditions: 18-24 h at 37° C., inoculum about 10^4 CFU/ml
Description: as §1

SMILES | MIC Escherichia coli SKF 12140 [1] [microgram/ml] | MIC Proteus vulgaris X19H ATCC 881 [2] [microgram/ml] | MIC Pseudomonas aeruginosa ATCC 10145 [3] [microgram/ml] | MIC Staphylococcus aureus TOUR [4] [microgram/ml] | MIC Staphylococcus epidermidis ATCC 12228 [5] [microgram/ml] | MIC Streptococcus faecalis ATCC 7080 [7] [microgram/ml] | MIC Streptococcus pneumoniae UC 41 [8] [microgram/ml] | MIC Streptococcus pyogenes C 203 [9] [microgram/ml] | ED50 p.o. (Strep. pyogenes C 203) | ED50 s.c. (Strep. pyogenes C 203) [mg/kg] | MIC Staphylococcus haemolyticus L 602 [6] [microgram/ml]
CC(=O)N[C@H]1[C@H](OC2c3ccc(c(Cl)c3)Oc3cc4cc(c3O[C@@H]3O[C@H](CO)[C@@H](O)[C@H](O)[C@H]3NC(=O)CCCCCCC(C)C)Oc3ccc(cc3Cl)CC3NC(=O)C(N)c5ccc(O)c(c5)Oc5cc(O)cc(c5)C(NC3=O)C(=O)NC4C(=O)NC3C(=O)NC2C(=O)NC(C(=O)NCCNCCN)c2cc(O)cc(O[C@H]4O[C@H](CO)[C@@H](O)[C@H](O)[C@@H]4O)c2-c2cc3ccc2O)O[C@H](CO)[C@@H](O)[C@@H]1O (stereo partly drawn) [Compound 2] |  |  |  |  |  |  |  |  | about 60 mg/kg | 0.09 | 
CN(C)CCCN(CCCN)CCCNC(=O)C1NC(=O)C2NC(=O)C(NC(=O)C3NC(=O)C4NC(=O)C(Cc5ccc(c(Cl)c5)Oc5cc3cc(c5O)Oc3ccc(cc3Cl)C2O)NC(=O)C(N)c2ccc(O)c(c2)Oc2cc(O)cc4c2)c2ccc(O)c(c2)-c2c(O)cc(O)cc21 (stereo not drawn) [Compound 51] | 8 | 128 | 32 | 0.12 | 0.06 | 0.25 | 0.12 | 0.06 |  |  | 0.12
CCN(CC)CCN(CCCN)CCCNC(=O)C1NC(=O)C2NC(=O)C(NC(=O)C3NC(=O)C4NC(=O)C(Cc5ccc(c(Cl)c5)Oc5cc3cc(c5O)Oc3ccc(cc3Cl)C2O)NC(=O)C(N)c2ccc(O)c(c2)Oc2cc(O)cc4c2)c2ccc(O)c(c2)-c2c(O)cc(O)cc21 (stereo not drawn) [Compound 52] | 32 | > 128 | 128 | 0.12 | 0.03 | 0.12 | 0.12 | 0.12 |  |  | 0.12
CN(C)CCCN1CCN(C(=O)C2NC(=O)C3NC(=O)C(NC(=O)C4NC(=O)C5NC(=O)C(Cc6ccc(c(Cl)c6)Oc6cc4cc(c6O)Oc4ccc(cc4Cl)C3O)NC(=O)C(N)c3ccc(O)c(c3)Oc3cc(O)cc5c3)c3ccc(O)c(c3)-c3c(O)cc(O)cc32)CC1 (stereo not drawn) [Compound 53] | 8 | 128 | 32 | 0.06 | 0.06 | 0.12 | 0.12 | 0.06 |  |  | 0.06

Now from value to compound, other results behind:

MIC Escherichia coli SKF 12140 [1] [microgram/ml] | MIC Proteus vulgaris X19H ATCC 881 [2] [microgram/ml] | MIC Pseudomonas aeruginosa ATCC 10145 [3] [microgram/ml] | MIC Staphylococcus aureus TOUR [4] [microgram/ml] | MIC Staphylococcus epidermidis ATCC 12228 [5] [microgram/ml] | MIC Streptococcus faecalis ATCC 7080 [7] [microgram/ml] | MIC Streptococcus pneumoniae UC 41 [8] [microgram/ml] | MIC Streptococcus pyogenes C 203 [9] [microgram/ml] | SMILES | ED50 p.o. (Strep. pyogenes C 203) | ED50 s.c. (Strep. pyogenes C 203) [mg/kg] | MIC Staphylococcus haemolyticus L 602 [6] [microgram/ml]
> 128 | > 128 | 64 | 0.12 | 0.06 | 0.12 | 0.12 | 0.06 | CC(=O)NC1C(OC2c3ccc(c(Cl)c3)Oc3cc4cc(c3OC3OC(CO)C(O)C(O)C3NC(=O)CCCCCCC(C)C)Oc3ccc(cc3Cl)CC3NC(=O)C(N)c5ccc(O)c(c5)Oc5cc(O)cc(c5)C(NC3=O)C(=O)NC4C(=O)NC3C(=O)NC2C(=O)NC(C(=O)NCCCNCCCNCCCN)c2cc(O)cc(OC4OC(CO)C(O)C(O)C4O)c2-c2cc3ccc2O)OC(CO)C(O)C1O (stereo not drawn) [Compound 9] | about 80 mg/kg | 0.06 | 0.12
64 | 128 | 32 | 0.12 | 0.06 | 0.12 | 0.12 | 0.06 | CC(=O)NC1C(OC2c3ccc(c(Cl)c3)Oc3cc4cc(c3OC3OC(CO)C(O)C(O)C3NC(=O)CCCCCCC(C)C)Oc3ccc(cc3Cl)CC3NC(=O)C(N)c5ccc(O)c(c5)Oc5cc(O)cc(c5)C(NC3=O)C(=O)NC4C(=O)NC3C(=O)NC2C(=O)NC(C(=O)NCCCNCCCCNCCCN)c2cc(O)cc(OC4OC(CO)C(O)C(O)C4O)c2-c2cc3ccc2O)OC(CO)C(O)C1O (stereo not drawn) [Compound 11] | 81.2 mg/kg | 0.03 | 0.12
> 128 | > 128 | 128 | 0.5 | 0.12 | 2 | 0.12 | 0.03 | NCCCNCCCCCCCCCNCCCNC(=O)C1NC(=O)C2NC(=O)C(NC(=O)C3NC(=O)C4NC(=O)C(Cc5ccc(c(Cl)c5)Oc5cc3cc(c5O)Oc3ccc(cc3Cl)C2O)NC(=O)C(N)c2ccc(O)c(c2)Oc2cc(O)cc4c2)c2ccc(O)c(c2)-c2c(O)cc(O)cc21 (stereo not drawn) [Compound 54] |  |  | 2
> 128 | > 128 | > 128 | 1 | 0.12 | 1 | 0.12 | 0.12 | NCCCNCCCCCCCCCCNCCCNC(=O)C1NC(=O)C2NC(=O)C(NC(=O)C3NC(=O)C4NC(=O)C(Cc5ccc(c(Cl)c5)Oc5cc3cc(c5O)Oc3ccc(cc3Cl)C2O)NC(=O)C(N)c2ccc(O)c(c2)Oc2cc(O)cc4c2)c2ccc(O)c(c2)-c2c(O)cc(O)cc21 (stereo not drawn) [Compound 55] |  |  | 1
